In US10106534B2 (CELGENE QUANTICEL RESEARCH, INC., priority 2014, dated 2018) one finds IC50 data, which are given here for 23 molecules.

The target of one experiment is JMJD2C (Homo sapiens (Human), UniProt Q9H3R0). Nature of the experiment: In vitro enzyme inhibition assay for JMJD2C activity (TR-FRET). The experiment is classed as biochemical. The method in brief: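 Demethylation product H3K9me2 quantified by TR-FRET ratio 665/615 after EDTA stop and 1 h with Eu-anti-H3K9me2 and streptavidin-APC; IC50 by curve fit. Reaction: 0.3 nM JMJD2C (AA 2-372, baculovirus), 2 μM α-ketoglutarate, 300 nM biotin-H3K9me3 peptide, pH 7.3 HEPES with Fe(II)/ascorbate, 30 min room temperature.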
On the technique in general: In TR-FRET formats the signal depends on donor and acceptor labels being close together.

In the next experiment the target is JMJD3 (Homo sapiens, UniProt O15054). Nature of the experiment: In vitro enzyme inhibition assay for JMJD3 activity (TR-FRET). Format: biochemical. On the procedure: This assay determines the ability of a test compound to inhibit JMJD3 demethylase activity.
The enzymatic assay of JMJD3 activity is based upon Time Resolved-Fluorescence Resonance Energy Transfer (TR-FRET) detection. […] Reaction product was determined quantitatively by TR-FRET after the addition of detection reagent Phycolink Streptavidin-allophycocyanin (Prozyme) and Europium-anti-di-methylated histone H3 lysine 27 (H3K27me2) antibody (PerkinElmer) in the presence of 5 mM EDTA in LANCE detection buffer (PerkinElmer) at a final concentration of 50 nM and 1 nM, respectively.
The reaction mixture was incubated at room temperature for 30 minutes, and terminated by the addition of 6 μL of 5 mM EDTA in LANCE detection buffer containing 100 nM Phycolink Streptavidin-allophycocyanin and 2 nM Europium-anti-H3K27me2 antibody.

The subject of experiment [1] is KYSE-150 esophageal carcinoma cell line. Nature of the experiment: In vitro cell-based assay: cellular proliferation via BrdU incorporation (ELISA). To be noted: Homo sapiens, KYSE-150, 168 hours compound incubation. More on the design: species or system human. The method in brief:
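BrdU incorporation during S-phase, detected colorimetrically at 450 nm by peroxidase ELISA, measured proliferation after 168 h compound exposure.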

Molecules are shown by their SMILES.

Chain of JMJD2C (Q9H3R0 2-372): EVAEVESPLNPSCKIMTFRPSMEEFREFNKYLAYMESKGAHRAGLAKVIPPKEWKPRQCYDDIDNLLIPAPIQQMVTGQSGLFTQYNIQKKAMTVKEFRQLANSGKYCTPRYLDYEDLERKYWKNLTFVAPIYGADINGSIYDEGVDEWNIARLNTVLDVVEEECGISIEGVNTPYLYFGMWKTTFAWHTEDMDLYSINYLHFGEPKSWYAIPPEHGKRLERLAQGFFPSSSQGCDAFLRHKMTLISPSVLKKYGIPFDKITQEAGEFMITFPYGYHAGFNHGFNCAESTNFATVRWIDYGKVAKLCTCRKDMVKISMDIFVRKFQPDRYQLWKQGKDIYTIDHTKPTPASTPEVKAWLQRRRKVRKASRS

By IC50 is commonly meant the midpoint of a concentration-inhibition curve. A low value points to greater potency in that assay. Consider `CN(c1ccccc1)c1ccc2c(n1)CCCC2CNc1cnccc1C(=O)O` (stereo not drawn) [Example 26, 3-[({2-[methyl(phenyl)amino]-5,6,7,8-tetrahydroquinolin-5-yl}methyl)amino]pyridine-4-carboxylic acid], for which the IC50 is 100 to 1000 nM against JMJD2C, 1000 to 10000 nM at JMJD3 and 1000 to 10000 nM in experiment [1].
In the case of `O=C(O)c1ccncc1NCC1CCOc2cc(-c3ccoc3)ccc21` (stereo not drawn) [Example 28, 3-({[7-(furan-3-yl)-3,4-dihydro-2H-1-benzopyran-4-yl]methyl}amino)pyridine-4-carboxylic acid], the concentration for half-maximal inhibition (IC50) was 100 to 1000 nM at JMJD2C, less than 100 nM against JMJD3 and 1000 to 10000 nM in experiment [1].
With `O=C(O)c1ccncc1NC[C@@H]1CCOc2cc(-c3ccsc3)ccc21` [Example 34, 3-({[(4R)-7-(thiophen-3-yl)-3,4-dihydro-2H-1-benzopyran-4-yl]methyl}amino)pyridine-4-carboxylic acid], the IC50 against JMJD2C was in the range of 100 to 1000 nM; on JMJD3, 1000 to 10000 nM; in experiment [1], 100 to 1000 nM.
Turning to `Cc1sccc1-c1ccc2c(c1)OCC[C@H]2CNc1cnccc1C(=O)O` [Example 37, 3-({[(4R)-7-(2-methylthiophen-3-yl)-3,4-dihydro-2H-1-benzopyran-4-yl]methyl}amino)pyridine-4-carboxylic acid], the results for the IC50 (on JMJD2C; on JMJD3; in experiment [1]) were 1000 to 10000 nM, 1000 to 10000 nM and 100 to 1000 nM, respectively.
With `O=C(O)c1ccncc1NC[C@@H]1CCOc2cc(-c3ccccc3Cl)ccc21` [Example 40, 3-({[(4R)-7-(2-chlorophenyl)-3,4-dihydro-2H-1-benzopyran-4-yl]methyl}amino)pyridine-4-carboxylic acid], the IC50 on JMJD2C was 100 to 1000 nM; against JMJD3, 1000 to 10000 nM; in experiment [1] it was not above 100 nM.
Consider `O=C(O)c1ccncc1NC[C@@H]1CCOc2cc(Sc3ccc(F)cc3)ccc21` [Example 55, 3-({[(4R)-7-[(4-fluorophenyl)sulfanyl]-3,4-dihydro-2H-1-benzopyran-4-yl]methyl}amino)pyridine-4-carboxylic acid], for which the figures for the half-inhibitory concentration (IC50) (on JMJD2C; against JMJD3; in experiment [1]) were 100 to 1000 nM, 1000 to 10000 nM and 100 to 1000 nM, respectively.
For `Cc1ccc(Oc2ccc3c(c2)CCC[C@H]3CNc2cnccc2C(=O)O)c(F)c1` [Example 66, 3-({[(1R)-6-(2-fluoro-4-methylphenoxy)-1,2,3,4-tetrahydronaphthalen-1-yl]methyl}amino)pyridine-4-carboxylic acid], the IC50 is 100 to 1000 nM against JMJD2C, 1000 to 10000 nM against JMJD3 and not above 100 nM in experiment [1].
In the case of `COc1ccc2c(c1C)CCC[C@H]2CNc1cnccc1C(=O)O` [Example 99, 3-({[(1R)-6-methoxy-5-methyl-1,2,3,4-tetrahydronaphthalen-1-yl]methyl}amino)pyridine-4-carboxylic acid], the IC50 lay within 100 to 1000 nM against JMJD2C, 100 to 1000 nM on JMJD3 and 1000 to 10000 nM in experiment [1].
For the molecule `Cc1ccc(N(C)c2ccc3c(c2)CCC[C@H]3CNc2cnccc2C(=O)O)nc1` [Example 122, 3-({[(1R)-6-[methyl(5-methylpyridin-2-yl)amino]-1,2,3,4-tetrahydronaphthalen-1-yl]methyl}amino)pyridine-4-carboxylic acid], the IC50 is 100 to 1000 nM at JMJD2C, 1000 to 10000 nM at JMJD3 and not above 100 nM in experiment [1].
On to `Cc1cccc(N(C)c2ccc3c(c2)CCC[C@H]3CNc2cnccc2C(=O)O)n1` [Example 123, 3-({[(1R)-6-[methyl(6-methylpyridin-2-yl)amino]-1,2,3,4-tetrahydronaphthalen-1-yl]methyl}amino)pyridine-4-carboxylic acid], for which the IC50 against JMJD2C is 100 to 1000 nM; at JMJD3, 1000 to 10000 nM; in experiment [1], not above 100 nM.
As to `C#Cc1ccc(N(C)c2ccc3c(c2)OCC[C@H]3CNc2cnccc2C(=O)O)cc1` [Example 126, 3-({[(4R)-7-[(4-ethynylphenyl)(methyl)amino]-3,4-dihydro-2H-1-benzopyran-4-yl]methyl}amino)pyridine-4-carboxylic acid], the figures for the half-inhibitory concentration (IC50) (on JMJD2C; against JMJD3; in experiment [1]) were 100 to 1000 nM, 1000 to 10000 nM and 100 to 1000 nM, respectively.
As to `CN(c1ccc(C2CC2)cc1)c1ccc2c(c1)OCC[C@H]2CNc1cnccc1C(=O)O` [Example 134, 3-({[(4R)-7-[(4-cyclopropylphenyl)(methyl)amino]-3,4-dihydro-2H-1-benzopyran-4-yl]methyl}amino)pyridine-4-carboxylic acid], the figures for the IC50 (at JMJD2C; on JMJD3; in experiment [1]) were 100 to 1000 nM, 1000 to 10000 nM and not above 100 nM, respectively.
For `Cc1ccc(N(C)c2ccc3c(c2)CCC[C@H]3CNc2cnccc2C(=O)O)cc1` [Example 140, 3-({[(1R)-6-[methyl(4-methylphenyl)amino]-1,2,3,4-tetrahydronaphthalen-1-yl]methyl}amino)pyridine-4-carboxylic acid] the same measures were 100 to 1000 nM, 1000 to 10000 nM and not above 100 nM.
For `Cc1ccc(N(C)c2ccc3c(c2)OCC[C@H]3CNc2cnccc2C(=O)O)nc1` [Example 145, 3-({[(4R)-7-[methyl(5-methylpyridin-2-yl)amino]-3,4-dihydro-2H-1-benzopyran-4-yl]methyl}amino)pyridine-4-carboxylic acid], the IC50 against JMJD2C was not above 100 nM; on JMJD3 it was 1000 to 10000 nM; in experiment [1], not above 100 nM.
With `CN(c1ccc2c(c1)OCC[C@H]2CNc1cnccc1C(=O)O)c1ccc(C2CC2)cn1` [Example 153, 3-({[(4R)-7-[(5-cyclopropylpyridin-2-yl)(methyl)amino]-3,4-dihydro-2H-1-benzopyran-4-yl]methyl}amino)pyridine-4-carboxylic acid], the IC50 was 100 to 1000 nM at JMJD2C, 1000 to 10000 nM on JMJD3 and not above 100 nM in experiment [1].
With `CCc1ccc(N(C)c2ccc3c(c2)OCC[C@H]3CNc2cnccc2C(=O)O)cc1` [Example 154, 3-({[(4R)-7-[(4-ethylphenyl)(methyl)amino]-3,4-dihydro-2H-1-benzopyran-4-yl]methyl}amino)pyridine-4-carboxylic acid], the IC50 against JMJD2C is 100 to 1000 nM; at JMJD3, 1000 to 10000 nM; in experiment [1], not above 100 nM.
As for `Cc1cnc(N(C)c2ccc3c(c2)CCC[C@H]3CNc2cnccc2C(=O)O)nc1` [Example 156, 3-({[(1R)-6-[methyl(5-methylpyrimidin-2-yl)amino]-1,2,3,4-tetrahydronaphthalen-1-yl]methyl}amino)pyridine-4-carboxylic acid], the concentration for half-maximal inhibition (IC50) at JMJD2C lay in the range of 100 to 1000 nM; against JMJD3 it was 1000 to 10000 nM; in experiment [1], 100 to 1000 nM.
In the case of `CCc1ccc(N(C)c2ccc3c(c2)OCC[C@H]3CNc2cnccc2C(=O)O)nc1` [Example 157, 3-({[(4R)-7-[(5-ethylpyridin-2-yl)(methyl)amino]-3,4-dihydro-2H-1-benzopyran-4-yl]methyl}amino)pyridine-4-carboxylic acid], the 50% inhibitory concentration (IC50) on JMJD2C was 100 to 1000 nM; against JMJD3, 1000 to 10000 nM; in experiment [1] it was not above 100 nM.
The like results for `CN(c1ccc2c(c1)CCC[C@H]2CNc1cnccc1C(=O)O)c1cnn(C)c1` [Example 159, 3-({[(1R)-6-[methyl(1-methyl-1H-pyrazol-4-yl)amino]-1,2,3,4-tetrahydronaphthalen-1-yl]methyl}amino)pyridine-4-carboxylic acid] were, in that order, 100 to 1000 nM, 1000 to 10000 nM and 1000 to 10000 nM.
With `CN(C)c1ccc(N(C)c2ccc3c(c2)CCC[C@H]3CNc2cnccc2C(=O)O)cc1` [Example 160, 3-({[(1R)-6-{[4-(dimethylamino)phenyl](methyl)amino}-1,2,3,4-tetrahydronaphthalen-1-yl]methyl}amino)pyridine-4-carboxylic acid], the IC50 on JMJD2C is 100 to 1000 nM; against JMJD3 it was 1000 to 10000 nM; in experiment [1] it was not above 100 nM.
For the molecule `COCc1ccc(N(C)c2ccc3c(c2)CCC[C@H]3CNc2cnccc2C(=O)O)cc1` [Example 164, 3-({[(1R)-6-{[4-(methoxymethyl)phenyl](methyl)amino}-1,2,3,4-tetrahydronaphthalen-1-yl]methyl}amino)pyridine-4-carboxylic acid], the figures for the IC50 (against JMJD2C; on JMJD3; in experiment [1]) were 100 to 1000 nM, 1000 to 10000 nM and not above 100 nM, respectively.
`CN(c1ccc(O)cc1)c1ccc2c(c1)CCC[C@H]2CNc1cnccc1C(=O)O` [Example 165, 3-({[(1R)-6-[(4-hydroxyphenyl)(methyl)amino]-1,2,3,4-tetrahydronaphthalen-1-yl]methyl}amino)pyridine-4-carboxylic acid]: the half-maximal inhibitory concentration (IC50) lay within 100 to 1000 nM on JMJD2C, 1000 to 10000 nM on JMJD3 and 1000 to 10000 nM in experiment [1].
For the molecule `Cc1noc(C)c1N(C)c1ccc2c(c1)CCC[C@H]2CNc1cnccc1C(=O)O` [Example 166, 3-({[(1R)-6-[(dimethyl-1,2-oxazol-4-yl)(methyl)amino]-1,2,3,4-tetrahydronaphthalen-1-yl]methyl}amino)pyridine-4-carboxylic acid], the IC50 against JMJD2C is 100 to 1000 nM; on JMJD3 it was 1000 to 10000 nM; in experiment [1], more than 10000 nM.
